Source: the NIST ThermoML archive (doi:10.1016/j.tca.2018.05.016)
Numbers after ± are expanded uncertainties.

Legend:
[1] = Crystal; DSC
[2] = Molar enthalpy of transition or fusion; conditions: Crystal; DSC

SMILES: O=[N+]([O-])[O-].c1cc[nH+]cc1 [pyridinium nitrate]
- Triple point temperature [1]: 390 ± 5 K
- Molar enthalpy of transition or fusion [2]: 4.13 ± 0.148 kcal/mol
